# Patent publication US11111500B2, “Mutated protoporphyrinogen IX oxidase (PPX) genes” (CIBUS US LLC, priority 2010, dated 2021)
# Read-outs that look alike come from different tables or passages of the source.
# How the values were obtained:
# [1] = Solubility of herbicide in liquid culture selection media; type: physicochemical
# Method: Liquid culture selection conditions were developed for both sulfentrazone and flumioxazin. Cultures of 1 mL volume were tested with sulfentrazone and flumioxazin concentrations ranging from 0 to 10 mM. The 0 mM samples had 25 μL DMSO (2.5%) to mimic the concentration of DMSO in the samples containing 10 mM herbicide. Each tube was inoculated with 10 μL of an overnight culture of HemG cells complemented with the wildtype PPX plasmid to ensure uniformity. Spectrophotometric readings (OD600) were taken for each sample (1:4 dilution) and a sample of each plated on LB-Chlor-IPTG plates to determine whether the OD600 correlated with the number of viable colonies. A 10% dilution of the overnight culture was plated for the sulfentrazone-treated cells and a 1% dilution for the cells treated with flumioxazin was plated (see results in Tables 8a-f and 9a-d).
# Both sulfentrazone and flumioxazin precipitate out in the liquid media, causing it to appear opaque even before inoculating bacteria.
# [2] = tested on: potato protoplasts (protoplast-derived cells); assay: Sulfentrazone kill curve with cell suspension and shoot tip-derived protoplasts; type: cell-based; conditions: for Microcallus formation: exposed one month; for # Of calli in 3 beads, # / # Of calli in 3 beads, %: Non treated protoplast + PEG; for # Of calli in 3 beads, # / # Of calli in 3 beads, % / # of calli in beads, # / # of calli in beads, %: one month; for # Of calli in 3 beads, % / # of calli in beads, %: relative to 0.0 μM; for # of calli in beads, # / # of calli in beads, %: Stop-GFP + Correcting GRON protoplasts
# Method: Herbicide selection experiments were performed to determine the concentration of herbicide necessary to kill protoplast derived microcalli in a defined treatment period. […] The herbicide was suspended in DMSO, with the final concentration of DMSO in the herbicide treatments being 1%. Development of cells was evaluated under the microscope once a week. […]
# Therefore, new kill curves were initiated with lower concentrations of 0, 0.5, 0.6, 0.7 and 0.8 μM of sulfentrazone, shown in Table 1.3.
# About 200 shoot tips of 2-8 week-old in vitro shoots that have been cultured under a regular day/night regime, or, preferably were kept for two days before protoplast isolation in the dark, shoots may be cut into small pieces with a scalpel in a petri dish with sterile water. After all tips have been cut, the water is replaced with protoplast culture medium, preferably BN (B5 Salts and Vitamins (Phytotechnology Laboratories), glucose 20 g/L, mannitol 70 g/L, alpha naphthalene acetic acid 5 mg/L, additional CaCl2×2H2O 600 mg/L, casein hydrolysate 250 mg/L, cystcine-HCL 10 mg/L, polyvinylpyrrolidone (MW 10,000) 5 g/L. After approximately 1-2 h, the protoplast culture medium is replaced with enzyme solution, for example consisting of medium BN, in which 0.5% (w/v) Cellulase YC and 0.75% (w/v) Maccrozyme R10 (both from Karlan Research Products, Cottonwood, Ariz.), 1 g/L bovine serum albumin, and 1 g/L 2-morpholinoethanesulfonic acid are dissolved. The ratio of the number of shoot tips over the volume of enzyme solution can be between 10 and 16, preferably 13. The dish with shoot tip pieces in enzyme solution is incubated for at 25° C.-30° C., preferably 28° C., in darkness on a shaker set to about 50 rpm. After overnight incubation the protoplast suspension is purified using an iodixanol density gradient (adapted from Optiprep Application Sheet C18; Purification of Intact Plant Protoplasts; Axis-Shield USA, 10 Commerce Way, Norton, Mass. 02776). After the density gradient centrifugation, the band with purified protoplasts is removed together with about 5 mL W5 medium (Frigerio et al., 1998). The protoplast density and yield are determined with a hemocytometer. The protoplasts density is adjusted to 1×10^6/mL in BN medium containing 2 mg/L 2,6-dichlorobenzonitrile (cellulose synthase inhibitor), and the protoplasts are cultured in darkness at 30° C. for about 16 h.
# 1. Fast growing cell suspensions are used, preferably three days after their last subculture. 1.5 mL settled cell volume is transferred to about 15 ml BN medium, which after 2 h is replaced with enzyme solution. 2. The protoplast purification is followed immediately by the GRON/PEG treatment.
# The protoplast suspension is mixed with an equal volume of W5 medium, transferred to a 50 mL centrifuge tube, and centrifuged for 10 min at the lowest setting of a clinical centrifuge (about 50×g). The supernatant is removed and replaced with TM medium (Klaus, S. Markerfreie transplastome Tabakpflanzen (Marker-free transplastomic tobacco plants). PhD Dissertation, 2002, Ludwig-Maximilians-Universitát Múnchen, 109 pp), adjusting the protoplast density to 5×10^6/mL. Aliquots of 100 μL containing 5×10^5 protoplasts each are distributed into 12 mL round bottom centrifuge tubes. GRONs (such as those shown in Table 14) targeted at one or more mutations in one or both of the mitochondrial and plastidal PPX genes are then introduced into the protoplasts using a PEG treatment. To introduce the GRONs into the protoplasts, 12.5 μg GRON dissolved in 25 μL purified water and 125 μL of a polyethylene glycol solution (5 g PEG MW 1500, 638 mg mannitol, 207 mg CaNO3×4H2O and 8.75 mL purified water; pH adjusted to about 9.0) is added. After a 10-30 min incubation on ice, the protoplast-PEG suspension is washed with W5 medium and resuspended in medium BN. The suspension is kept overnight in darkness at room temperature.
# One day after the GRON introduction, protoplasts are embedded in calcium alginate. […]
smiles,measurement,setting,value
C#CCN1C(=O)COc2cc(F)c(N3C(=O)C4=C(CCCC4)C3=O)cc21 [flumioxazin],solubility in liquid media,"[1]; liquid culture selection media, 0 to 10 mM, DMSO 2.5%",deficient solubility
Cc1nn(-c2cc(NS(C)(=O)=O)c(Cl)cc2Cl)c(=O)n1C(F)F [sulfentrazone],Microcallus formation,[2]; 7.8 μM sulfentrazone,No
same,Microcallus formation,[2]; 15.6 μM sulfentrazone,No
same,Microcallus formation,[2]; 31.25 μM sulfentrazone,No
same,Microcallus formation,[2]; 62.5 μM sulfentrazone,No
same,"# Of calli in 3 beads, #",[2]; 0.5 μM,45
same,"# Of calli in 3 beads, %",[2]; 0.5 μM,30%
same,"# Of calli in 3 beads, #",[2]; 0.6 μM,8
same,"# Of calli in 3 beads, %",[2]; 0.6 μM,6.9%
same,"# Of calli in 3 beads, #",[2]; 0.7 μM,2
same,"# Of calli in 3 beads, %",[2]; 0.7 μM,1.7%
same,"# Of calli in 3 beads, #",[2]; 0.8 μM,0.0
same,"# Of calli in 3 beads, %",[2]; 0.8 μM,0.0%
same,"# of calli in beads, #",[2]; 0.5 μM,38
same,"# of calli in beads, %",[2]; 0.5 μM,30.2%
same,"# of calli in beads, #",[2]; 0.6 μM,12
same,"# of calli in beads, %",[2]; 0.6 μM,9.6%
same,"# of calli in beads, #",[2]; 0.7 μM,7
same,"# of calli in beads, %",[2]; 0.7 μM,5.6%
same,"# of calli in beads, #",[2]; 0.8 μM,0.0
same,"# of calli in beads, %",[2]; 0.8 μM,0.0%
same,concentration sufficient to kill all protoplast-derived cells,[2]; shoot tip-derived protoplasts and cell suspension,7.8 µM
same,solubility in liquid media,[1],eventually goes into solution
